Key:
[1] = tested on: Human hepatic stellate cells HSC; test: RT-PCR analysis of mRNA expression in human hepatic stellate cells cultured with Tβ4; format: cell-based
Procedure: Human hepatic stellate cells HSC were obtained from a liver cell mixture purchased from ADMET technologies after separation on an OptiPrep® Density Gradient Medium (Sigma). They were cultured until confluent and then plated at a density of 250,000 cells/60-mm dish and cultured in MEM supplemented with 10% bovine fetal serum, 1% non-essential amino acids and antibiotics. The cells were maintained in culture for approximately 48 hours and when semi-confluent they were serum-starved overnight using MEM supplemented with 1% albumin, antibiotics and 1% non-essential amino acids. RNA was extracted with Trizol (Invitrogen) and RT-PCR performed using primers. The expression of GAPDH was used as a control. All the experiments were performed in duplicate.
In many instances, the increase was dose dependent. […] The expression of another marker of HSC differentiation, namely PDGF-β receptor, was inhibited in a dose-dependent manner (75% with 1 μg/ml of Tβ4).

[2] = tested on: Co-cultures of rat HSC and Human hepatocytes; test: Co-cultures of rat HSC and human hepatocytes with Tβ4, hepatocyte count after one week; format: cell-based; conditions: greater than 100 ng/ml of Tβ4; one week in culture
Procedure: Hepatocyte Growth Factor (HGF) is a trophic factor for hepatocytes. […] Co-cultures of rat HSC and Human hepatocytes are prepared. Controls are incubated with the regular hormonally-defined medium used for hepatocytes. Experimental cultures receive greater than 100 ng/ml of Tβ4 in the same culture medium. Cells are harvested after one week using collagenase and trypsin. The hepatocytes are separated from the HSC by low speed centrifugation and the cells counted and used for total RNA extraction. […] The purity of the cell fractions are determined after staining with anti-human albumin antibodies (rat HSC are negative). RNA is used for RT-PCR and the expression of liver specific genes analyzed using human primers. Rat primers are used to determine the degree of contamination of rat HSC.

[3] = HSC cultured for 24 hours with different concentrations of Tβ4, RT-PCR, GAPDH control
[4] = HSC cultured for 24 hours, RT-PCR

## thymosin beta 4 [Tβ4]
[1]; 1 μg/ml of Tβ4, HSC cultured for 24 hours, dose-dependent
  inhibition of expression of PDGF-β receptor: 75%
[1]; 1 mg/ml of Tβ4, HSC cultured for 24 hours
  increase in expression of HGF mRNA: 4 fold
[1]; [3]
  increase in expression of GSK 3β mRNA: 2.5 fold
  increase in expression of α-SMA mRNA: 4 fold
  increase in expression of β-catenin mRNA: 3 fold
[1]; [4]
  Tβ4 concentration giving maximal expression of α-SMA: 1 µg/mL
  Tβ4 concentration giving maximal increase in β-catenin mRNA: 1 ng/mL
[2]
  hepatocyte proliferation / number: proliferate and increase in number

From US20100278934A1, “METHODS AND COMPOSITIONS FOR CONSERVING AND/OR PREPARING AN ORGAN OR TISSUE FOR TRANSPLANT” (Regenerx Biopharmaceuticals Inc., priority 2006, published 2010)
